Like-named read-outs stand apart in the source and are kept apart here.
What was measured:
[1] = tested on: human sebocyte cell line; test: Nile Red Neutral Lipid Accumulation Assay; format: cell-based; conditions: day 3 of treatment, with 1 μM T0901317 and 1 μM insulin
Procedure: This assay examines the ability of compounds to stimulate or inhibit lipid accumulation in human sebocyte cell line. Cells were seeded in tissue culture treated black clear bottom plates. Compounds were added in the presence of Liver X Receptor (LXR) agonist (T0901317) and 1 μM insulin for 3 days and 5 days. For the 5 day treatment fresh compounds were added at Day 3. After the treatment period nile red dye was added and the relative fluorescence determined for both total and neutral lipids. The neutral/total lipid ratio was calculated and obtained values were normalized to both the Cell Titer Blue viability reagent.
Protocol—Day 1: Human immortalized sebocytes were seeded at 10,000 cells/well in 96-well black, clear bottom plates in Sebocyte Growth Medium and allowed to attach overnight at 37° C. […] 3) The relative fluorescence (RFU) of the incorporated stain was determined under 2 parameters: 540ex/620em with no cutoff (Total Lipid), and 485ex/555em with a 515 cutoff (Neutral Lipid) using bottom reads. […] Cell titer blue reagent (100 was then added to each well and the cells were allowed to incubate for 2 hours at 37° C., 5% CO2. 5) The RFU value was determined at 560ex/590em with a 570 cutoff using a top read.
Data Analysis—Cell viability is presented as cell titer blue fluorescence reading (RFU) for each treatment. […] Minimum and maximum values are determined by UNT and LXR+INS controls. […]

[2] = Toxicokinetic assessment of systemic exposure in minipigs following dermal administration; format: in vivo; conditions: Göttingen, minipig, plasma, topical or ocular; for AUC(0-t): read-out: AUC0-24; for Tmax: Median (Min-Max)
Procedure: Male and female göttingen minipigs were dosed daily for a period of 28 days in a GLP toxicity study with DMVT-503 gel at 0.1%, 0.3%, and 0.6%. DMVT-503 concentrations were quantitated using a validated LC-MS/MS method and toxicokinetic parameters were calculated for all dosing groups, sexes, and sampling occasions. The systemic exposures observed in this study are supportive of the effective delivery of DMVT-503 into and through minipig skin by the gel formulations tested. Table 10 presents the summary as mean±SD on Days 1 and 28 following daily dermal application of DMVT-503 gel formulations at 0.1%, 0.3%, and 0.6% (2, 6, and 12 mg/kg/day, respectively).

[3] = female, 2 mg/kg/day, Day 1, Female, 2 mg/kg/day, 0.1% gel
[4] = female, 2 mg/kg/day, Day 28, Female, 2 mg/kg/day, 0.1% gel
[5] = female, 6 mg/kg/day, Day 1, Female, 6 mg/kg/day, 0.3% gel
[6] = female, 6 mg/kg/day, Day 28, Female, 6 mg/kg/day, 0.3% gel
[7] = female, 12 mg/kg/day, Day 1, Female, 12 mg/kg/day, 0.6% gel
[8] = female, 12 mg/kg/day, Day 28, Female, 12 mg/kg/day, 0.6% gel
[9] = male, 2 mg/kg/day, Day 1, Male, 2 mg/kg/day, 0.1% gel
[10] = male, 2 mg/kg/day, Day 28, Male, 2 mg/kg/day, 0.1% gel
[11] = male, 6 mg/kg/day, Day 1, Male, 6 mg/kg/day, 0.3% gel
[12] = male, 6 mg/kg/day, Day 28, Male, 6 mg/kg/day, 0.3% gel
[13] = male, 12 mg/kg/day, Day 1, Male, 12 mg/kg/day, 0.6% gel
[14] = male, 12 mg/kg/day, Day 28, Male, 12 mg/kg/day, 0.6% gel

For `Cc1nc(C)c(-c2ccc([C@H]3CC[C@H](CC(=O)O)CC3)cc2)nc1C(N)=O` [DMVT-503, 2-((1R,4R)-4-(4-(6-carbamoyl-3,5-dimethylpyrazin-2-yl)phenyl)cyclohexyl)acetic acid], the IC50 ([1]; Homo sapiens, 72 h) was 25.2 nM, the Cmax [2, 3] was 37.3 ng/mL and the AUC(0-t) [2, 3] was 323 ng·h/mL. It also gave a Cmax [2, 4] of 193 ng/mL, an AUC(0-t) [2, 4] of 3940 ng·h/mL and a Tmax [2, 3] of 24 h. The Tmax [2, 4] was 1 h, the Cmax [2, 5] was 210 ng/mL and the AUC(0-t) [2, 5] was 1750 ng·h/mL. The Cmax [2, 6] was 487 ng/mL, the AUC(0-t) [2, 6] was 8660 ng·h/mL and the Tmax [2, 5] was 24 h. It also gave a Tmax [2, 6] of 0 h, a Cmax [2, 7] of 171 ng/mL and an AUC(0-t) [2, 7] of 1490 ng·h/mL. The Cmax [2, 8] was 1370 ng/mL, the AUC(0-t) [2, 8] was 25400 ng·h/mL and the Tmax [2, 7] was 24 h. It also gave a Tmax [2, 8] of 0 h, a Cmax [2, 9] of 35.1 ng/mL and an AUC(0-t) [2, 9] of 307 ng·h/mL. It also gave a Cmax [2, 10] of 19.6 ng/mL, an AUC(0-t) [2, 10] of 3970 ng·h/mL and a Tmax [2, 9] of 24 h. It also gave a Tmax [2, 10] of 0 h, a Cmax [2, 11] of 53 ng/mL and an AUC(0-t) [2, 11] of 478 ng·h/mL. For the same compound, the Cmax [2, 12] was 940 ng/mL, the AUC(0-t) [2, 12] was 17500 ng·h/mL and the Tmax [2, 11] was 24 h. It also gave a Tmax [2, 12] of 2 h, a Cmax [2, 13] of 103 ng/mL and an AUC(0-t) [2, 13] of 10500 ng·h/mL. It also gave a Cmax [2, 14] of 1160 ng/mL, an AUC(0-t) [2, 14] of 22300 ng·h/mL and a Tmax [2, 13] of 24 h. It also gave a Tmax [2, 14] of 1 h.
`CC1=C(/C=C/C(C)=C/C=C/C(C)=C\C(=O)O)C(C)(C)CCC1` [Mix 13-cis-RA, 13-cis-retinoic Acid, reference compound] showed an IC50 [1] of 829 nM.
